Results taken from ChEMBL document CHEMBL1201862, “PubChem BioAssay data set” (2004).
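Assay format: 96-well plates, 48-hour exposure. Here, GI50 denotes the concentration required for 50% inhibition of growth.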 The source made the active and inactive calls. No stated cut-off is given here; in the data, active = GI50 up to about 1.1 µM and inactive = higher.

Assays:
Assay in all cases: NCI-60 cell line screen, 48 h
[1] = tested on: NCI-H460
[2] = tested on: CAKI-1
[3] = tested on: HOP-62
[4] = tested on: HL-60
[5] = tested on: OVCAR-8
[6] = tested on: M14
[7] = tested on: SNB-19
[8] = tested on: SN12C
[9] = tested on: DMS-273
[10] = tested on: KM12
[11] = tested on: COLO 205
[12] = tested on: OVCAR-4
[13] = tested on: LOX IMVI
[14] = tested on: NCI-H522

Measured: GI50

Cc1cccc(NC(=O)CSc2nnc(Cc3ccccc3)o2)c1
inactive: [1] > 100 µM | [2] > 100 µM | [3] > 100 µM | [4] > 100 µM | [5] > 100 µM | [6] > 100 µM | [7] > 100 µM | [8] > 100 µM | [9] > 100 µM | [10] > 100 µM | [11] > 100 µM | [12] > 100 µM | [13] > 100 µM | [14] > 100 µM

Cc1c(C2Cc3ccccc3N2)c2ccccc2n1C (stereo not drawn)
inactive: [1] 79.1 µM | [2] > 100 µM | [3] > 100 µM | [4] > 100 µM | [5] > 100 µM | [6] > 100 µM | [7] > 100 µM | [8] > 100 µM | [9] > 100 µM | [10] > 100 µM | [11] > 100 µM | [12] > 100 µM | [13] > 100 µM | [14] > 100 µM

O=C1CCC(=O)N2CCCCN12
inactive: [1] > 100 µM | [2] > 100 µM | [3] > 100 µM | [4] > 100 µM | [5] > 100 µM | [6] > 100 µM | [7] > 100 µM | [8] > 100 µM | [9] > 100 µM | [10] > 100 µM | [11] > 100 µM | [12] > 100 µM | [13] > 100 µM | [14] > 100 µM

CC(=O)O[C@H]1CC[C@@]2(C)C(=CC[C@H]3C(CC#N)[C@@](C)(C#N)CCC32)C1 (stereo partly drawn)
inactive: [1] > 100 µM | [3] > 100 µM | [4] > 100 µM | [5] > 100 µM | [6] > 100 µM | [7] > 100 µM | [8] > 100 µM | [9] > 100 µM | [10] > 100 µM | [11] > 100 µM | [12] > 100 µM | [13] > 100 µM

COC(=O)[C@@H]1C(=O)O[C@@H](c2cc(OC)c(OC)cc2OC)[C@@H]1C(=O)OC.COC(=O)[C@H]1C(=O)O[C@@H](c2cc(OC)c(OC)cc2OC)[C@@H]1C(=O)OC
inactive: [1] > 100 µM | [2] > 100 µM | [3] > 100 µM | [4] > 100 µM | [5] > 100 µM | [6] > 100 µM | [7] > 100 µM | [8] > 100 µM | [9] > 100 µM | [10] > 100 µM | [11] > 100 µM | [12] > 100 µM | [13] > 100 µM | [14] > 100 µM

O=[N+]([O-])C(=C1c2ccccc2-c2ccccc21)[N+](=O)[O-]
inactive: [1] 48 µM | [2] > 100 µM | [3] > 100 µM | [4] 29.2 µM | [5] > 100 µM | [6] > 100 µM | [7] 97.5 µM | [8] > 100 µM | [9] > 10 µM | [10] 57.5 µM | [11] > 100 µM | [12] > 100 µM | [13] 83.4 µM | [14] 44.1 µM

N#CCCN(c1ccc(/C=C2\N=C(c3ccc(Cl)cc3)OC2=O)cc1)S(=O)(=O)c1ccccc1
inactive: [1] > 100 µM | [2] > 100 µM | [3] > 100 µM | [4] > 100 µM | [5] > 100 µM | [6] > 100 µM | [7] > 100 µM | [8] > 100 µM | [9] > 100 µM | [10] > 100 µM | [11] > 100 µM | [12] > 100 µM | [13] > 100 µM | [14] > 100 µM

COc1ccc(NC(=O)CC2S/C(=N\c3ccccc3C)NC2=O)c([N+](=O)[O-])c1 (stereo not drawn)
inactive: [1] > 100 µM | [3] > 100 µM | [4] > 100 µM | [5] > 100 µM | [6] > 100 µM | [7] > 100 µM | [8] > 100 µM | [9] > 100 µM | [10] > 100 µM | [11] > 100 µM | [12] > 100 µM | [13] > 100 µM | [14] 25.4 µM

Cc1ccc2c(c1)SC(c1cc3c(cc1Br)OCO3)S2 (stereo not drawn)
inactive: [1] > 31.6 µM | [2] > 76 µM | [3] > 31.6 µM | [4] 22.6 µM | [5] > 31.6 µM | [6] > 31.6 µM | [7] > 100 µM | [8] > 31.6 µM | [9] 20 µM | [10] 26.7 µM | [11] > 31.6 µM | [12] > 31.6 µM | [13] > 31.6 µM | [14] 24.7 µM

CCOC(=O)c1c(/C=N\Nc2ccccc2)nc2ccccc2c1-c1ccccc1
inactive: [1] 37.8 µM | [2] 68.9 µM | [3] 39 µM | [4] 15 µM | [5] 32.1 µM | [6] 36.7 µM | [7] 79.1 µM | [8] 38.1 µM | [9] 25 µM | [10] 43.9 µM | [11] 24 µM | [12] 29.9 µM | [13] 35.4 µM | [14] 24.9 µM

CN(CCCN1C(=O)c2cccc3cc([N+](=O)[O-])cc(c23)C1=O)CCN(C)CCCN1C(=O)c2cccc3cc([N+](=O)[O-])cc(c23)C1=O
inactive: [1] 6.73 µM | [2] 31.9 µM | [3] 31.8 µM | [4] 19.6 µM | [5] 2.74 µM | [6] > 39.3 µM | [7] > 39.3 µM | [8] > 39.3 µM | [9] 11.4 µM | [10] 24.7 µM | [11] 23.4 µM | [12] 27.4 µM | [14] > 39.3 µM

CS(=O)(=O)Oc1cccc(/C=N/N=C(\N)NO)c1
inactive: [1] 24.8 µM | [2] 20.9 µM | [3] 27.5 µM | [4] 19 µM | [5] 33.2 µM | [6] 27.1 µM | [7] 64.9 µM | [8] 29.2 µM | [9] 19.9 µM | [10] 25.1 µM | [11] 26.7 µM | [12] 18 µM | [14] 26.2 µM

O=CN1CCN(C=S)CC1
inactive: [1] > 100 µM | [2] > 100 µM | [3] > 100 µM | [4] > 100 µM | [5] > 100 µM | [6] > 100 µM | [7] > 100 µM | [8] > 100 µM | [9] > 100 µM | [10] > 100 µM | [11] > 100 µM | [12] > 100 µM | [13] > 100 µM | [14] > 100 µM

CCOC(=O)C12CCCC1(O)N(NC(=O)OC(C)(C)C)C(C)=C2C(=O)OC (stereo not drawn)
inactive: [1] > 100 µM | [2] > 100 µM | [3] > 100 µM | [4] > 100 µM | [5] > 100 µM | [6] > 100 µM | [7] > 100 µM | [8] > 100 µM | [9] > 100 µM | [10] > 100 µM | [11] > 100 µM | [12] > 100 µM | [13] > 100 µM | [14] 97.3 µM

Cc1cccc(C)c1NC(=O)CCc1nnc2s/c(=C\c3ccc(Cl)cc3)c(=O)n12
inactive: [1] > 100 µM | [2] > 100 µM | [3] 22 µM | [4] > 100 µM | [5] > 100 µM | [6] > 100 µM | [7] > 100 µM | [8] > 100 µM | [9] 54.6 µM | [10] > 100 µM | [11] 92 µM | [12] > 100 µM | [13] > 100 µM | [14] > 100 µM

O=C1NC2OC(CO)C(O)C(O1)C2O (stereo not drawn)
inactive: [1] > 100 µM | [2] > 100 µM | [3] > 100 µM | [4] > 100 µM | [5] > 100 µM | [6] > 100 µM | [7] > 100 µM | [8] > 100 µM | [9] > 100 µM | [10] > 100 µM | [11] > 100 µM | [12] > 100 µM | [13] > 100 µM | [14] > 100 µM

Cn1c(=O)oc2cc(C3CCC(=O)N3Cc3csc(-c4ccccc4)n3)ccc21 (stereo not drawn)
inactive: [1] > 100 µM | [2] > 100 µM | [3] > 100 µM | [4] 79.8 µM | [5] > 100 µM | [6] > 100 µM | [7] > 100 µM | [8] > 100 µM | [9] 89.5 µM | [10] 76.2 µM | [11] 77.3 µM | [12] > 100 µM | [13] > 100 µM | [14] > 100 µM

O=C(Cc1nc2ccccc2s1)C(=O)Nc1ccc(Cl)cc1
inactive: [1] > 100 µM | [2] > 100 µM | [3] > 100 µM | [4] > 100 µM | [5] > 100 µM | [6] > 100 µM | [7] > 100 µM | [8] > 100 µM | [9] > 100 µM | [10] > 100 µM | [11] > 100 µM | [12] > 100 µM | [13] > 100 µM | [14] > 100 µM

COc1cc(-c2n[nH]cc2CCCC(=O)Nc2ccccc2[N+](=O)[O-])ccc1O
inactive: [2] > 100 µM | [3] > 100 µM | [4] 35.9 µM | [5] > 100 µM | [6] 50.9 µM | [8] > 100 µM | [9] 66.7 µM | [11] > 100 µM | [12] > 100 µM | [13] > 100 µM | [14] 94 µM
